The source made the active and inactive calls. The calls are words filed in the database; no cut-off is given here. Peptide text beside a SMILES is read from it. * marks the point of attachment. Biotinyl(3aR,4S,6aS) = O=C1N[C@H]2[C@H](CCCCC(=O)*)SC[C@H]2N1; Biotin = O=C1N[C@H]2[C@H](CS[C@H]2CCCCC(=O)*)N1; Stearoyl = CCCCCCCCCCCCCCCCCC(=O)*
Legend:
[1] = (§1) Binding affinity to Influenza A virus (A/New Caledonia/20/99 (H1N1)) H1 hemagglutinin after 2 hrs by avidin-biotin-peroxidase complex method; parameters: species or system Influenza A virus (A/New Caledonia/20/1999(H1N1))
[2] = (§2) Binding affinity to Influenza A virus (A/Wyoming/03/2003(H3N2)) H3 hemagglutinin after 2 hrs by avidin-biotin-peroxidase complex method
[3] = Binding affinity to Influenza A virus (A/Aichi/2/68(H3N2)) H3 hemagglutinin after 2 hrs by NMR method; parameters: species or system Influenza A virus (A/Aichi/2/1968(H3N2))
[4] = system: Influenza A virus (A/Wyoming/03/2003(H3N2)); test: as §2
[5] = system: H3N2 subtype; test: Antiviral activity against Influenza A virus (A/Aichi/2/68(H3N2)) infected in MDCK cells assessed as inhibition of plaque formation pretreated with virus for 30 mins followed by host cell infection for 30 mins measured after 2 days by crystal violet staining assay; assay type: functional, organism-based; conditions: A/Aichi/2/1968(H3N2)
[6] = system: Influenza A virus; test: Antiviral activity against Influenza A virus (A/Puerto Rico/8/34(H1N1)) infected in MDCK cells assessed as inhibition of plaque formation pretreated with virus for 30 mins followed by host cell infection for 30 mins measured after 2 days by crystal violet staining assay; assay type: functional, organism-based; conditions: A/Puerto Rico/8/1934(H1N1)
[7] = system: Influenza A virus (A/Wyoming/03/2003(H3N2)); test: Binding affinity to Influenza A virus (A/Wyoming/03/2003(H3N2)) H3 hemagglutinin after 2 hrs by avidin-biotin-peroxidase complex method in presence of Neu5Ac
[8] = system: Influenza A virus (A/Wyoming/03/2003(H3N2)); test: Binding affinity to Influenza A virus (A/Wyoming/03/2003(H3N2)) H3 hemagglutinin after 2 hrs by avidin-biotin-peroxidase complex method in presence of glucose
[9] = system: Influenza A virus (A/New Caledonia/20/1999(H1N1)); test: as §1
[10] = system: Influenza A virus (A/Wyoming/03/2003(H3N2)); test: Binding affinity to Influenza A virus (A/Wyoming/03/2003(H3N2)) H3 hemagglutinin at 200 uM after 2 hrs by avidin-biotin-peroxidase complex method in presence of Neu5Ac
[11] = system: Influenza A virus (A/Wyoming/03/2003(H3N2)); test: Binding affinity to Influenza A virus (A/Wyoming/03/2003(H3N2)) H3 hemagglutinin at 400 uM after 2 hrs by avidin-biotin-peroxidase complex method relative to 7-1 peptide

CC(=O)N[C@H]1[C@H]([C@H](O)[C@H](O)CO)O[C@@](O[C@H]2[C@@H](O)[C@@H](CO)O[C@@H](O[C@H]3[C@H](O)[C@@H](O)[C@H](O)O[C@@H]3CO)[C@@H]2O)(C(=O)O)C[C@@H]1O
Kd [1]: > 200 µM
Kd [2]: > 400 µM
Kd [3]: 3200 µM

CC(C)C[C@H](NC(=O)[C@H](C)NC(=O)[C@H](CC(C)C)NC(=O)[C@@H]1CCCN1C(=O)[C@H](CCCNC(=N)N)NC(=O)[C@@H](NC(=O)[C@@H](N)CC(=O)O)C(C)C)C(=O)N[C@@H](CCCCNC(=O)CCCC[C@@H]1SC[C@H]2NC(=O)N[C@@H]12)C(N)=O (H-DVRPLALK(Biotinyl(3aR,4S,6aS))-NH2)
Activity [4]: Active

CC(C)C[C@H](NC(=O)[C@H](C)NC(=O)[C@H](CC(C)C)NC(=O)[C@@H]1CCCN1C(=O)[C@H](Cc1cnc[nH]1)NC(=O)[C@@H](NC(=O)[C@@H](N)CC(C)C)C(C)C)C(=O)N[C@@H](CCCCNC(=O)CCCC[C@@H]1SC[C@H]2NC(=O)N[C@@H]12)C(N)=O (H-LVHPLALK(Biotinyl(3aR,4S,6aS))-NH2)
Activity [4]: Active

CCCCCCCCCCCCCCCCCC(=O)N[C@@H](CC(C)C)C(=O)N[C@H](C(=O)N[C@@H](CCCNC(=N)N)C(=O)N1CCC[C@H]1C(=O)N[C@@H](CC(C)C)C(=O)N[C@@H](C)C(=O)N[C@@H](CC(C)C)C(N)=O)C(C)C (Stearoyl-LVRPLAL-NH2)
IC50 [5]: 6.4 µM
IC50 [6]: 101 µM

CC(C)C[C@H](NC(=O)[C@H](C)NC(=O)[C@H](CC(C)C)NC(=O)[C@@H]1CCCN1C(=O)[C@H](CCCNC(=N)N)NC(=O)[C@@H](NC(=O)[C@H](C)N)C(C)C)C(=O)N[C@@H](CCCCNC(=O)CCCC[C@@H]1SC[C@H]2NC(=O)N[C@@H]12)C(N)=O (H-AVRPLALK(Biotinyl(3aR,4S,6aS))-NH2)
Activity [7]: inactive
Activity [8]: Active

CC(C)C[C@H](NC(=O)[C@H](C)NC(=O)[C@H](Cc1c[nH]c2ccccc12)NC(=O)[C@@H]1CCCN1C(=O)[C@H](CCCNC(=N)N)NC(=O)[C@@H](NC(=O)[C@@H](N)CC(C)C)C(C)C)C(=O)N[C@@H](CCCCNC(=O)CCCC[C@@H]1SC[C@H]2NC(=O)N[C@@H]12)C(N)=O (H-LVRPWALK(Biotinyl(3aR,4S,6aS))-NH2)
Activity [4]: Active

CC(C)C[C@H](NC(=O)[C@H](C)NC(=O)[C@H](CCCNC(=N)N)NC(=O)[C@@H](NC(=O)[C@@H](N)CC(C)C)C(C)C)C(=O)N[C@@H](C)C(=O)N[C@@H](CC(C)C)C(=O)N[C@@H](CCCCNC(=O)CCCC[C@@H]1SC[C@H]2NC(=O)N[C@@H]12)C(N)=O (H-LVRALALK(Biotinyl(3aR,4S,6aS))-NH2)
Activity [4]: inactive

CC(C)C[C@H](NC(=O)[C@H](C)NC(=O)[C@H](CC(C)C)NC(=O)[C@@H]1CCCN1C(=O)[C@H](CCCNC(=N)N)NC(=O)[C@H](C)NC(=O)[C@@H](N)CC(C)C)C(=O)N[C@@H](CCCCNC(=O)CCCC[C@@H]1SC[C@H]2NC(=O)N[C@@H]12)C(N)=O (H-LARPLALK(Biotinyl(3aR,4S,6aS))-NH2)
Activity [7]: inactive
Activity [8]: Active

CC(C)C[C@H](NC(=O)[C@@H]1CCCN1C(=O)[C@H](CCCNC(=N)N)NC(=O)[C@@H](NC(=O)[C@@H](N)CC(C)C)C(C)C)C(=O)N[C@@H](C)C(=O)N[C@@H](C)C(=O)N[C@@H](CCCCNC(=O)CCCC[C@@H]1SC[C@H]2NC(=O)N[C@@H]12)C(N)=O (H-LVRPLAAK(Biotinyl(3aR,4S,6aS))-NH2)
Activity [7]: inactive
Activity [8]: Active

CC(C)C[C@H](NC(=O)[C@H](C)NC(=O)[C@H](CC(C)C)NC(=O)[C@@H]1CCCN1C(=O)[C@H](CCCNC(=N)N)NC(=O)[C@@H](NC(=O)[C@@H](N)CC(C)C)C(C)C)C(=O)N[C@@H](CCCCNC(=O)CCCC[C@@H]1SC[C@@H]2NC(=O)N[C@@H]21)C(N)=O (H-LVRPLALK(Biotin)-NH2)
Kd [1]: 92 µM
Activity [9]: Dose-dependent effect
Kd [2]: 194 µM
Activity [4]: Dose-dependent effect
Activity [10]: inactive

CC(C)C[C@H](NC(=O)[C@H](C)NC(=O)[C@H](CC(C)C)NC(=O)[C@@H]1CCCN1C(=O)[C@H](C)NC(=O)[C@@H](NC(=O)[C@@H](N)CC(C)C)C(C)C)C(=O)N[C@@H](CCCCNC(=O)CCCC[C@@H]1SC[C@H]2NC(=O)N[C@@H]12)C(N)=O (H-LVAPLALK(Biotinyl(3aR,4S,6aS))-NH2)
Activity [4]: inactive

CC(C)C[C@H](NC(=O)[C@H](C)NC(=O)[C@H](C)NC(=O)[C@@H]1CCCN1C(=O)[C@H](CCCNC(=N)N)NC(=O)[C@@H](NC(=O)[C@@H](N)CC(C)C)C(C)C)C(=O)N[C@@H](CCCCNC(=O)CCCC[C@@H]1SC[C@H]2NC(=O)N[C@@H]12)C(N)=O (H-LVRPAALK(Biotinyl(3aR,4S,6aS))-NH2)
Activity [7]: inactive
Activity [8]: Active

CC(C)C[C@H](NC(=O)[C@H](C)NC(=O)[C@H](CC(C)C)NC(=O)[C@@H]1CCCN1C(=O)[C@H](CC(=O)O)NC(=O)[C@@H](NC(=O)[C@@H](N)CC(C)C)C(C)C)C(=O)N[C@@H](CCCCNC(=O)CCCC[C@@H]1SC[C@H]2NC(=O)N[C@@H]12)C(N)=O (H-LVDPLALK(Biotinyl(3aR,4S,6aS))-NH2)
Activity [11]: 19%

CC(C)C[C@H](NC(=O)[C@H](C)NC(=O)[C@H](CC(C)C)NC(=O)[C@@H]1CCCN1C(=O)[C@H](CCCNC(=N)N)NC(=O)[C@H](CCC(N)=O)NC(=O)[C@@H](N)CC(C)C)C(=O)N[C@@H](CCCCNC(=O)CCCC[C@@H]1SC[C@H]2NC(=O)N[C@@H]12)C(N)=O (H-LQRPLALK(Biotinyl(3aR,4S,6aS))-NH2)
Activity [4]: Active

CC(C)C[C@H](NC(=O)[C@H](CC(=O)O)NC(=O)[C@H](CC(C)C)NC(=O)[C@@H]1CCCN1C(=O)[C@H](CCCNC(=N)N)NC(=O)[C@@H](NC(=O)[C@@H](N)CC(C)C)C(C)C)C(=O)N[C@@H](CCCCNC(=O)CCCC[C@@H]1SC[C@H]2NC(=O)N[C@@H]12)C(N)=O (H-LVRPLDLK(Biotinyl(3aR,4S,6aS))-NH2)
Activity [4]: Active

CC(C)C[C@H](NC(=O)CNC(=O)[C@H](CCCNC(=N)N)NC(=O)[C@@H](NC(=O)[C@@H](N)CC(C)C)C(C)C)C(=O)N[C@@H](C)C(=O)N[C@@H](CC(C)C)C(=O)N[C@@H](CCCCNC(=O)CCCC[C@@H]1SC[C@H]2NC(=O)N[C@@H]12)C(N)=O (H-LVRGLALK(Biotinyl(3aR,4S,6aS))-NH2)
Activity [11]: 17%

CC(=O)N[C@H]1[C@H]([C@H](O)[C@H](O)CO)O[C@@](OC[C@H]2O[C@@H](O[C@H]3[C@H](O)[C@@H](O)[C@H](O)O[C@@H]3CO)[C@H](O)[C@@H](O)[C@H]2O)(C(=O)O)C[C@@H]1O
Kd [1]: > 500 µM
Kd [2]: > 500 µM
Kd [3]: 2100 µM

CC(C)C[C@H](NC(=O)[C@H](C)NC(=O)[C@H](CC(C)C)NC(=O)[C@H](Cc1cnc[nH]1)NC(=O)[C@H](CCCNC(=N)N)NC(=O)[C@@H](NC(=O)[C@@H](N)CC(C)C)C(C)C)C(=O)N[C@@H](CCCCNC(=O)CCCC[C@@H]1SC[C@H]2NC(=O)N[C@@H]12)C(N)=O (H-LVRHLALK(Biotinyl(3aR,4S,6aS))-NH2)
Activity [4]: Active

— ChEMBL document CHEMBL3763029, “Heptapeptide ligands against receptor-binding sites of influenza hemagglutinin toward anti-influenza therapy” (Bioorg Med Chem, 2016)
